Test results taken from patent US12194124B2, “Personal care compositions for treating odor causing bacteria and methods for the same” (Colgate-Palmolive Company, priority 2019, dated 2025).

Tested on: S. Haemolyticus
Test: Growth inhibition assay in 96-well plate, optical density of S. Haemolyticus
Format: cell-based, Staphylococcus haemolyticus
Method: The efficacy of 2-butyl octanol for selectively promoting, inhibiting, reducing, and/or treating bacterial growth was evaluated. Particularly, the efficacy of 2-butyl octanol for selectively promoting, inhibiting, reducing, and/or treating bacterial growth of Corynebacterium and Staphylococcus was evaluated. To evaluate the efficacy, an active solution was prepared by emulsifying 2-butyl octanol with a nonionic surfactant, namely, Polysorbate 80. The active solution included the 2-butyl octanol and the Polysorbate 80 in a ratio of about 83:17. Both positive controls (including no active solution) and negative controls (including no bacteria) were also prepared.
A 96-well plate was utilized to evaluate the growth of the respective bacteria at varying dilutions. Each of the wells of a 96-well plate was aseptically filled with about 100 μL of Tryptic Soy Broth (TSB). In the first well of each row, about 100 μL of either the active solution (including the 2-butyl octanol and Polysorbate 80) or the desired solvent for the respective positive and negative controls was added to thereby provide a total of about 200 μL in the first well of the each respective row. A multi-channel pipette was then utilized to prepare a two-fold dilution in each column. Specifically, a multi-channel pipette set to about 100 μL was utilized to mix and transfer about 100 μL of the 200 μL from the wells of the first column to the respective wells of a subsequent column. This was repeated for each of the remaining eleven columns. About 100 μL of the twelfth column was removed, thereby leaving about 100 μL in each of the 96 wells. […] Specifically, a phosphate buffered saline (PBS) was utilized for the negative control. About 100 μL of the respective bacteria adjusted to 0.1 optical density (OD) bacteria was added to all other wells. The well plate was then incubated overnight at about 37° C. in a growth inhibition assay machine. Measurements were taken at about one hour increments.

Q: With `CCCCCCC(CO)CCCC` (stereo not shown) [2-butyl octanol, 2-butyl-1-octanol] as the compound, how does the “Measured Optical Density of S. Haemolyticus” value (“Measured Optical Density” below) (0.02% 2-Butyl Octanol, 1 Hour) read?
A: 0.017

Q: And the “Measured Optical Density” value (0.02% 2-Butyl Octanol, 2 Hour)?
A: 0.129

Q: And the “Measured Optical Density” value (0.02% 2-Butyl Octanol, 3 Hour)?
A: 0.203

Q: What about the “Measured Optical Density” value (0.02% 2-Butyl Octanol, 4 Hour) of the same compound?
A: 0.218

Q: What about the “Measured Optical Density” value (0.02% 2-Butyl Octanol, 5 Hour) of the same compound?
A: 0.272

Q: What about the “Measured Optical Density” value (0.02% 2-Butyl Octanol, 6 Hour) of the same compound?
A: 0.34

Q: What about the “Measured Optical Density” value (0.02% 2-Butyl Octanol, 7 Hour) of the same compound?
A: 0.426

Q: And the “Measured Optical Density” value (0.02% 2-Butyl Octanol, 8 Hour)?
A: 0.503

Q: And the “Measured Optical Density” value (0.02% 2-Butyl Octanol, 9 Hour)?
A: 0.558

Q: And the “Measured Optical Density” value (0.02% 2-Butyl Octanol, 10 Hour)?
A: 0.616

Q: What about the “Measured Optical Density” value (0.02% 2-Butyl Octanol, 11 Hour) of the same compound?
A: 0.649

Q: And the “Measured Optical Density” value (0.02% 2-Butyl Octanol, 12 Hour)?
A: 0.671

Q: What about the “Measured Optical Density” value (0.02% 2-Butyl Octanol, 13 Hour) of the same compound?
A: 0.702

Q: And the “Measured Optical Density” value (0.02% 2-Butyl Octanol, 14 Hour)?
A: 0.719

Q: What about the “Measured Optical Density” value (0.02% 2-Butyl Octanol, 15 Hour) of the same compound?
A: 0.724

Q: What about the “Measured Optical Density” value (0.02% 2-Butyl Octanol, 16 Hour) of the same compound?
A: 0.735

Q: And the “Measured Optical Density” value (0.02% 2-Butyl Octanol, 17 Hour)?
A: 0.748

Q: And the “Measured Optical Density” value (0.02% 2-Butyl Octanol, 18 Hour)?
A: 0.751

Q: What about the “Measured Optical Density” value (0.04% 2-Butyl Octanol, 1 Hour) of the same compound?
A: 0.026

Q: And the “Measured Optical Density” value (0.04% 2-Butyl Octanol, 2 Hour)?
A: 0.153

Q: And the “Measured Optical Density” value (0.04% 2-Butyl Octanol, 3 Hour)?
A: 0.237

Q: And the “Measured Optical Density” value (0.04% 2-Butyl Octanol, 4 Hour)?
A: 0.247

Q: And the “Measured Optical Density” value (0.04% 2-Butyl Octanol, 5 Hour)?
A: 0.286

Q: What about the “Measured Optical Density” value (0.04% 2-Butyl Octanol, 6 Hour) of the same compound?
A: 0.328

Q: And the “Measured Optical Density” value (0.04% 2-Butyl Octanol, 7 Hour)?
A: 0.389

Q: And the “Measured Optical Density” value (0.04% 2-Butyl Octanol, 8 Hour)?
A: 0.453

Q: And the “Measured Optical Density” value (0.04% 2-Butyl Octanol, 9 Hour)?
A: 0.514

Q: What about the “Measured Optical Density” value (0.04% 2-Butyl Octanol, 10 Hour) of the same compound?
A: 0.56

Q: And the “Measured Optical Density” value (0.04% 2-Butyl Octanol, 11 Hour)?
A: 0.596

Q: And the “Measured Optical Density” value (0.04% 2-Butyl Octanol, 12 Hour)?
A: 0.619

Q: And the “Measured Optical Density” value (0.04% 2-Butyl Octanol, 13 Hour)?
A: 0.624

Q: What about the “Measured Optical Density” value (0.04% 2-Butyl Octanol, 14 Hour) of the same compound?
A: 0.635

Q: What about the “Measured Optical Density” value (0.04% 2-Butyl Octanol, 15 Hour) of the same compound?
A: 0.656

Q: What about the “Measured Optical Density” value (0.04% 2-Butyl Octanol, 16 Hour) of the same compound?
A: 0.657

Q: And the “Measured Optical Density” value (0.04% 2-Butyl Octanol, 17 Hour)?
A: 0.671

Q: And the “Measured Optical Density” value (0.04% 2-Butyl Octanol, 18 Hour)?
A: 0.676

Q: And the “Measured Optical Density” value (0.08% 2-Butyl Octanol, 1 Hour)?
A: 0.039

Q: What about the “Measured Optical Density” value (0.08% 2-Butyl Octanol, 2 Hour) of the same compound?
A: 0.205

Q: What about the “Measured Optical Density” value (0.08% 2-Butyl Octanol, 3 Hour) of the same compound?
A: 0.308

Q: What about the “Measured Optical Density” value (0.08% 2-Butyl Octanol, 4 Hour) of the same compound?
A: 0.317

Q: What about the “Measured Optical Density” value (0.08% 2-Butyl Octanol, 5 Hour) of the same compound?
A: 0.355

Q: And the “Measured Optical Density” value (0.08% 2-Butyl Octanol, 6 Hour)?
A: 0.401

Q: What about the “Measured Optical Density” value (0.08% 2-Butyl Octanol, 7 Hour) of the same compound?
A: 0.462

Q: What about the “Measured Optical Density” value (0.08% 2-Butyl Octanol, 8 Hour) of the same compound?
A: 0.53

Q: What about the “Measured Optical Density” value (0.08% 2-Butyl Octanol, 9 Hour) of the same compound?
A: 0.58

Q: What about the “Measured Optical Density” value (0.08% 2-Butyl Octanol, 10 Hour) of the same compound?
A: 0.614

Q: What about the “Measured Optical Density” value (0.08% 2-Butyl Octanol, 11 Hour) of the same compound?
A: 0.637

Q: And the “Measured Optical Density” value (0.08% 2-Butyl Octanol, 12 Hour)?
A: 0.647

Q: What about the “Measured Optical Density” value (0.08% 2-Butyl Octanol, 13 Hour) of the same compound?
A: 0.673

Q: And the “Measured Optical Density” value (0.08% 2-Butyl Octanol, 14 Hour)?
A: 0.683

Q: And the “Measured Optical Density” value (0.08% 2-Butyl Octanol, 15 Hour)?
A: 0.693

Q: What about the “Measured Optical Density” value (0.08% 2-Butyl Octanol, 16 Hour) of the same compound?
A: 0.708

Q: And the “Measured Optical Density” value (0.08% 2-Butyl Octanol, 17 Hour)?
A: 0.733

Q: And the “Measured Optical Density” value (0.08% 2-Butyl Octanol, 18 Hour)?
A: 0.744

Q: What about the “Measured Optical Density” value (0.16% 2-Butyl Octanol, 1 Hour) of the same compound?
A: 0.049

Q: And the “Measured Optical Density” value (0.16% 2-Butyl Octanol, 2 Hour)?
A: 0.175

Q: What about the “Measured Optical Density” value (0.16% 2-Butyl Octanol, 3 Hour) of the same compound?
A: 0.26

Q: And the “Measured Optical Density” value (0.16% 2-Butyl Octanol, 4 Hour)?
A: 0.285

Q: What about the “Measured Optical Density” value (0.16% 2-Butyl Octanol, 5 Hour) of the same compound?
A: 0.326

Q: And the “Measured Optical Density” value (0.16% 2-Butyl Octanol, 6 Hour)?
A: 0.39

Q: And the “Measured Optical Density” value (0.16% 2-Butyl Octanol, 7 Hour)?
A: 0.464

Q: What about the “Measured Optical Density” value (0.16% 2-Butyl Octanol, 8 Hour) of the same compound?
A: 0.524

Q: And the “Measured Optical Density” value (0.16% 2-Butyl Octanol, 9 Hour)?
A: 0.579

Q: And the “Measured Optical Density” value (0.16% 2-Butyl Octanol, 10 Hour)?
A: 0.627

Q: What about the “Measured Optical Density” value (0.16% 2-Butyl Octanol, 11 Hour) of the same compound?
A: 0.66

Q: And the “Measured Optical Density” value (0.16% 2-Butyl Octanol, 12 Hour)?
A: 0.684

Q: What about the “Measured Optical Density” value (0.16% 2-Butyl Octanol, 13 Hour) of the same compound?
A: 0.71

Q: What about the “Measured Optical Density” value (0.16% 2-Butyl Octanol, 14 Hour) of the same compound?
A: 0.719

Q: And the “Measured Optical Density” value (0.16% 2-Butyl Octanol, 15 Hour)?
A: 0.724

Q: What about the “Measured Optical Density” value (0.16% 2-Butyl Octanol, 16 Hour) of the same compound?
A: 0.74

Q: And the “Measured Optical Density” value (0.16% 2-Butyl Octanol, 17 Hour)?
A: 0.756

Q: And the “Measured Optical Density” value (0.16% 2-Butyl Octanol, 18 Hour)?
A: 0.77

Q: What about the “growth of S. hominis” value (2-butyl octanol about 0.02 weight % to about 5.2 weight %) of the same compound?
A: did not inhibit the growth of and/or promoted the growth of

Q: And the “Measured Optical Density” value (5.2% 2-Butyl Octanol, 1 Hour)?
A: 0.198

Q: What about the “Measured Optical Density” value (5.2% 2-Butyl Octanol, 2 Hour) of the same compound?
A: 0.254

Q: And the “Measured Optical Density” value (5.2% 2-Butyl Octanol, 3 Hour)?
A: 0.345

Q: And the “Measured Optical Density” value (5.2% 2-Butyl Octanol, 4 Hour)?
A: 0.383

Q: And the “Measured Optical Density” value (5.2% 2-Butyl Octanol, 5 Hour)?
A: 0.396

Q: What about the “Measured Optical Density” value (5.2% 2-Butyl Octanol, 6 Hour) of the same compound?
A: 0.384

Q: And the “Measured Optical Density” value (5.2% 2-Butyl Octanol, 7 Hour)?
A: 0.403

Q: And the “Measured Optical Density” value (5.2% 2-Butyl Octanol, 8 Hour)?
A: 0.477

Q: What about the “Measured Optical Density” value (5.2% 2-Butyl Octanol, 9 Hour) of the same compound?
A: 0.549

Q: What about the “Measured Optical Density” value (5.2% 2-Butyl Octanol, 10 Hour) of the same compound?
A: 0.603

Q: What about the “Measured Optical Density” value (5.2% 2-Butyl Octanol, 11 Hour) of the same compound?
A: 0.622

Q: And the “Measured Optical Density” value (5.2% 2-Butyl Octanol, 12 Hour)?
A: 0.639

Q: And the “Measured Optical Density” value (5.2% 2-Butyl Octanol, 13 Hour)?
A: 0.654

Q: And the “Measured Optical Density” value (5.2% 2-Butyl Octanol, 14 Hour)?
A: 0.681

Q: And the “Measured Optical Density” value (5.2% 2-Butyl Octanol, 15 Hour)?
A: 0.699

Q: What about the “Measured Optical Density” value (5.2% 2-Butyl Octanol, 16 Hour) of the same compound?
A: 0.722

Q: What about the “Measured Optical Density” value (5.2% 2-Butyl Octanol, 17 Hour) of the same compound?
A: 0.742

Q: What about the “Measured Optical Density” value (5.2% 2-Butyl Octanol, 18 Hour) of the same compound?
A: 0.752
